Measured values published in the NIST ThermoML archive (doi:10.1021/je0501843).
Several values for one entry are separate records, joined by “and”; a condition that tells them apart may be missing. Equal entries are not always repeated.

Test: molar heat capacity at constant volume
Conditions: Fluid (supercritical or subcritical phases), Vacuum adiabatic calorimetry

FC(F)C(F)(F)F [pentafluoroethane]
Conditions	molar heat capacity at constant volume
382 K, Mass density=585 kg/m3	117.04 J/K/mol
382 K, Mass density=687.5 kg/m3	116.38 J/K/mol
382 K, Mass density=772.5 kg/m3	113.59 J/K/mol
382 K, Mass density=880.7 kg/m3	113.14 J/K/mol
382 K, Mass density=972.5 kg/m3	113.55 J/K/mol and 110.23 J/K/mol
383 K, Mass density=403.3 kg/m3	116.83 J/K/mol
383 K, Mass density=502.6 kg/m3	115.94 J/K/mol
383 K, Mass density=585 kg/m3	116.44 J/K/mol
383 K, Mass density=687.4 kg/m3	115.8 J/K/mol
383 K, Mass density=772.4 kg/m3	112.32 J/K/mol
383 K, Mass density=880.7 kg/m3	112.41 J/K/mol
383 K, Mass density=972.4 kg/m3	107.88 J/K/mol and 110.36 J/K/mol
384 K, Mass density=403.3 kg/m3	115.53 J/K/mol
384 K, Mass density=502.6 kg/m3	114.75 J/K/mol
384 K, Mass density=585 kg/m3	115.28 J/K/mol
384 K, Mass density=687.4 kg/m3	113.97 J/K/mol
384 K, Mass density=772.4 kg/m3	111.67 J/K/mol
384 K, Mass density=880.6 kg/m3	112.26 J/K/mol
384 K, Mass density=972.3 kg/m3	108.78 J/K/mol and 109.57 J/K/mol
385 K, Mass density=403.2 kg/m3	109.7 J/K/mol
385 K, Mass density=502.5 kg/m3	112.54 J/K/mol
385 K, Mass density=584.9 kg/m3	115.82 J/K/mol
385 K, Mass density=687.4 kg/m3	113.72 J/K/mol
385 K, Mass density=772.3 kg/m3	112.59 J/K/mol
385 K, Mass density=880.6 kg/m3	111.79 J/K/mol
385 K, Mass density=972.3 kg/m3	110.01 J/K/mol and 109.27 J/K/mol
386 K, Mass density=403.2 kg/m3	109.65 J/K/mol
386 K, Mass density=502.5 kg/m3	114.07 J/K/mol
386 K, Mass density=584.9 kg/m3	117.48 J/K/mol
386 K, Mass density=687.3 kg/m3	115.04 J/K/mol
386 K, Mass density=772.3 kg/m3	114.08 J/K/mol
386 K, Mass density=880.5 kg/m3	113.14 J/K/mol
386 K, Mass density=972.2 kg/m3	111.04 J/K/mol and 111.43 J/K/mol
387 K, Mass density=403.2 kg/m3	111.98 J/K/mol
387 K, Mass density=502.5 kg/m3	114.1 J/K/mol
387 K, Mass density=584.9 kg/m3	115.44 J/K/mol
387 K, Mass density=687.3 kg/m3	115.22 J/K/mol
387 K, Mass density=772.2 kg/m3	113.77 J/K/mol
387 K, Mass density=880.4 kg/m3	113.04 J/K/mol
387 K, Mass density=972.1 kg/m3	109.68 J/K/mol and 111.27 J/K/mol
388 K, Mass density=403.2 kg/m3	113.46 J/K/mol
388 K, Mass density=502.5 kg/m3	111.2 J/K/mol
388 K, Mass density=584.8 kg/m3	114.82 J/K/mol
388 K, Mass density=687.2 kg/m3	114.32 J/K/mol
388 K, Mass density=772.2 kg/m3	113.36 J/K/mol
388 K, Mass density=880.4 kg/m3	110.83 J/K/mol
388 K, Mass density=972 kg/m3	109.02 J/K/mol and 109.9 J/K/mol
389 K, Mass density=403.2 kg/m3	112.17 J/K/mol
389 K, Mass density=502.4 kg/m3	110.52 J/K/mol
389 K, Mass density=584.8 kg/m3	116.36 J/K/mol
389 K, Mass density=687.2 kg/m3	114.28 J/K/mol
389 K, Mass density=772.1 kg/m3	114.22 J/K/mol
389 K, Mass density=880.3 kg/m3	112.08 J/K/mol
389 K, Mass density=972 kg/m3	110.08 J/K/mol and 110.71 J/K/mol
390 K, Mass density=403.1 kg/m3	112.23 J/K/mol
390 K, Mass density=502.4 kg/m3	112.47 J/K/mol
390 K, Mass density=584.8 kg/m3	115.03 J/K/mol
390 K, Mass density=687.2 kg/m3	115.41 J/K/mol
390 K, Mass density=772.1 kg/m3	115.46 J/K/mol
390 K, Mass density=880.2 kg/m3	113.85 J/K/mol
390 K, Mass density=971.9 kg/m3	113.14 J/K/mol and 111.04 J/K/mol
391 K, Mass density=403.1 kg/m3	115.12 J/K/mol
391 K, Mass density=502.4 kg/m3	111.21 J/K/mol
391 K, Mass density=584.7 kg/m3	113.95 J/K/mol
391 K, Mass density=687.1 kg/m3	114.69 J/K/mol
391 K, Mass density=772 kg/m3	114.4 J/K/mol
391 K, Mass density=880.2 kg/m3	113.13 J/K/mol
391 K, Mass density=971.8 kg/m3	113.73 J/K/mol and 111.12 J/K/mol
392 K, Mass density=403.1 kg/m3	113.94 J/K/mol
392 K, Mass density=502.4 kg/m3	111.32 J/K/mol
392 K, Mass density=584.7 kg/m3	113.44 J/K/mol
392 K, Mass density=687.1 kg/m3	113.17 J/K/mol
392 K, Mass density=772 kg/m3	112.45 J/K/mol
392 K, Mass density=880.1 kg/m3	111.39 J/K/mol
392 K, Mass density=971.7 kg/m3	108.99 J/K/mol and 110.55 J/K/mol
393 K, Mass density=403.1 kg/m3	113.84 J/K/mol
393 K, Mass density=502.3 kg/m3	114.93 J/K/mol
393 K, Mass density=584.7 kg/m3	112.26 J/K/mol
393 K, Mass density=687 kg/m3	114.98 J/K/mol
393 K, Mass density=771.9 kg/m3	113.77 J/K/mol
393 K, Mass density=880 kg/m3	112.82 J/K/mol
393 K, Mass density=971.6 kg/m3	109.6 J/K/mol and 110.84 J/K/mol
394 K, Mass density=403.1 kg/m3	113.19 J/K/mol
394 K, Mass density=502.3 kg/m3	113.53 J/K/mol
394 K, Mass density=584.6 kg/m3	113.56 J/K/mol
394 K, Mass density=687 kg/m3	116.48 J/K/mol
394 K, Mass density=771.9 kg/m3	114.28 J/K/mol
394 K, Mass density=880 kg/m3	113.31 J/K/mol
394 K, Mass density=971.6 kg/m3	113.46 J/K/mol and 112.41 J/K/mol
395 K, Mass density=403 kg/m3	112.66 J/K/mol
395 K, Mass density=502.3 kg/m3	112.95 J/K/mol
395 K, Mass density=584.6 kg/m3	114.13 J/K/mol
395 K, Mass density=687 kg/m3	114.63 J/K/mol
395 K, Mass density=771.8 kg/m3	113.37 J/K/mol
395 K, Mass density=879.9 kg/m3	112.11 J/K/mol
395 K, Mass density=971.5 kg/m3	112.76 J/K/mol and 111.6 J/K/mol
396 K, Mass density=403 kg/m3	114.19 J/K/mol
396 K, Mass density=502.3 kg/m3	115.6 J/K/mol
396 K, Mass density=584.6 kg/m3	113.53 J/K/mol
396 K, Mass density=686.9 kg/m3	113.17 J/K/mol
396 K, Mass density=771.8 kg/m3	113.35 J/K/mol
396 K, Mass density=879.9 kg/m3	112.93 J/K/mol
396 K, Mass density=971.4 kg/m3	112.77 J/K/mol and 110.2 J/K/mol
397 K, Mass density=403 kg/m3	115.11 J/K/mol
397 K, Mass density=502.2 kg/m3	113.37 J/K/mol
397 K, Mass density=584.5 kg/m3	112.42 J/K/mol
397 K, Mass density=686.9 kg/m3	113.72 J/K/mol
397 K, Mass density=771.7 kg/m3	113.23 J/K/mol
397 K, Mass density=879.8 kg/m3	113.97 J/K/mol
397 K, Mass density=971.3 kg/m3	112.64 J/K/mol and 111.54 J/K/mol
398 K, Mass density=403 kg/m3	115.94 J/K/mol
398 K, Mass density=502.2 kg/m3	111.91 J/K/mol
398 K, Mass density=584.5 kg/m3	113.66 J/K/mol
398 K, Mass density=686.8 kg/m3	116.24 J/K/mol
398 K, Mass density=771.7 kg/m3	114.52 J/K/mol
398 K, Mass density=879.7 kg/m3	113.6 J/K/mol
398 K, Mass density=971.3 kg/m3	113.46 J/K/mol and 112.92 J/K/mol
399 K, Mass density=502.2 kg/m3	114.43 J/K/mol
399 K, Mass density=584.5 kg/m3	115.44 J/K/mol
399 K, Mass density=686.8 kg/m3	115.5 J/K/mol
399 K, Mass density=771.6 kg/m3	114.85 J/K/mol
399 K, Mass density=879.7 kg/m3	112.05 J/K/mol
399 K, Mass density=971.2 kg/m3	112.08 J/K/mol
